{"source": "paper PMC3856129", "about": "“Cytotoxicity and Genotoxicity Evaluation of Organochalcogens in Human Leucocytes: A Comparative Study between Ebselen, Diphenyl Diselenide, and Diphenyl Ditelluride” (BioMed Research International, 2013)", "key": {"human leucocytes [1]": {"system": "human leucocytes", "experiment": "Trypan's Blue exclusion test (cell viability)", "format": "cell-based", "settings": "for decrease in leucocyte viability: 50 μM; for effect on cell viability at lower concentrations: 5 and 10 μM", "protocol": "(§1) 2 mL of dextran 5% (dissolved in Phosphate Buffer Saline 1%) was added to 8 mL of blood. The tube was gently mixed and left to stand at room temperature for 45 min. Afterwards, the supernatant was centrifuged (480 ×g, 10 min) and plasma was discarded. The pellet was washed with erythrocyte lysis solution (NH4Cl 150 mM; NaHCO3 10 mM; EDTA 1 mM) and centrifuged (480 ×g, 2 min). The supernatant was discarded and the pellet was washed twice with 1 mL erythrocyte lysis solution. After the second centrifugation, the pellet was suspended in 2 mL Hank's buffer solution (KCl 5.4 mM; Na2HPO4 0.3 mM; KH2PO4 0.4 mM; NaHCO3 4.2 mM; MgCl2 0.5 mM; NaCl 122.6 mM; D-glicose 10 mM, Tris-HCl 10 mM; CaCl2 1.3 mM; pH 7.4). The concentration of leucocytes was adjusted to 2000 cells/μL.\n(§2) Leucocytes were exposed to ebselen, (PhSe)2, and (PhTe)2 at 5, 10, and 50 μM or an equal volume of DMSO (final concentration of 0.5%) during 3 hours at 37°C. Positive control group was treated with hydrogen peroxide (H2O2) 2 mM and sodium azide 1 mM.\nTrypan's Blue exclusion test was performed according to Mischel and Shiingi. After 3 hours of incubation, 50 μL of Trypan's Blue 0.4% was mixed with 50 μL of leucocytes and left to stand at room temperature for 5 minutes. Cell viability was determined microscopically (400x magnification) and expressed as number of viable cells divided by the total number of cells multiplied by 100."}, "human leucocytes [2]": {"system": "human leucocytes", "experiment": "Comet Assay (DNA damage index)", "format": "cell-based", "settings": "3 hours at 37°C, compared to the control group", "protocol": "as §1, §2\nComet Assay was performed according to Collins with some modifications. After three hours of incubation, 15 μL of the sample was mixed with 90 μL of low-melting point agarose 0.75% and placed in a slide precoated with agarose 1%. A coverslip was added and the samples were left to solidify at 4°C. The coverslips were removed and the slides were placed on a lysis solution (NaCl 2.5 M; EDTA 100 mM; Tris-HCl 8 mM; Triton X-100 1%; pH 10–10.5) during 24 hours at 4°C. Afterwards, the slides were incubated in an electrophoresis solution (NaOH 300 mM; EDTA 1 mM; pH 13.5) for 20 minutes at 4°C and the electrophoresis was performed (25 V; 300 mA; 7 W) for 20 minutes. All the steps were performed in the dark until this moment. After electrophoresis, the slides were washed in a neutralizing solution (Tris-HCl 400 mM; pH 7.5) three times, washed with distilled water, and left to dry. The slides were rehydrated and fixed (Trichloroacetic acid 15%; ZnSO4 5%; glycerol 5%), washed three with distilled water, and left to dry. Afterwards, the rehydrated slides were stained (Na2CO3 5%; NH4NO3 0.1%; AgNO3 0.1%; H4[W12SiO40] 0.25%; formaldehyde 0.15%). The slides were immersed in acetic acid 1%, washed, and left to dry.\nOne hundred cells randomly selected were analyzed in each sample according to tail size and intensity in five classes. The damage score for each cell can range between 0 (no damage) and 4 (maximum damage), according to Figure 1. Damage index (DI) was defined as follows: DI = 1n1 + 2n2 + 3n3 + 4n4, where n1 represents the number of cells with damage level 1, n2 represents the number of cells with damage level 2, n3 represents the number of cells with damage level 3, and n4 represents the number of cells with damage level 4. At least two different individuals analyzed the slides under blind conditions."}, "[3]": {"settings": "3 hours at 37°C, compared to the control groups"}}, "data": [{"smiles": "c1ccc([Se][Se]c2ccccc2)cc1", "note": "[(PhSe)2, Diphenyl Diselenide]", "values": [{"measurement": "decrease in leucocyte viability", "setting": "human leucocytes [1]; [3]", "result": "about 20%"}, {"measurement": "effect on cell viability at lower concentrations", "setting": "human leucocytes [1]; 3 hours at 37°C", "result": "did not cause significant decrease in cell viability"}, {"measurement": "damage index (DI) of DNA", "setting": "human leucocytes [2]; 50 μM", "result": "significant increase in DI"}, {"measurement": "damage index (DI) of DNA", "setting": "human leucocytes [2]; 5 and 10 μM", "result": "did not cause DNA damage"}]}, {"smiles": "c1ccc([Te][Te]c2ccccc2)cc1", "note": "[(PhTe)2, Diphenyl Ditelluride]", "values": [{"measurement": "decrease in leucocyte viability", "setting": "human leucocytes [1]; [3]", "result": "about 25%"}, {"measurement": "effect on cell viability at lower concentrations", "setting": "human leucocytes [1]; 3 hours at 37°C", "result": "did not cause significant decrease in cell viability"}, {"measurement": "damage index (DI) of DNA", "setting": "human leucocytes [2]; 50 μM", "result": "significant increase in DI"}, {"measurement": "damage index (DI) of DNA", "setting": "human leucocytes [2]; 5 and 10 μM", "result": "increased DI"}]}, {"smiles": "O=c1c2ccccc2[se]n1-c1ccccc1", "note": "[ebselen, Ebselen]", "values": [{"measurement": "decrease in leucocyte viability", "setting": "human leucocytes [1]; human, 3 h, pH 7.4", "result": "about 60%"}, {"measurement": "damage index (DI) of DNA", "setting": "human leucocytes [2]; 50 μM", "result": "significant increase in DI"}, {"measurement": "damage index (DI) of DNA", "setting": "human leucocytes [2]; 5 and 10 μM", "result": "did not cause DNA damage"}]}]}
